Measured values published in paper PMC9329436, “Optimization of the 4-anilinoquin(az)oline scaffold as epidermal growth factor receptor (EGFR) inhibitors for chordoma utilizing a toxicology profiling assay platform” (Scientific Reports, 2022).
Like-named read-outs stand apart in the source and are kept apart here.

Experiments:
Assay type in all cases: biochemical
[1] = molecular target: 320 wild-type protein kinases (Homo sapiens, UniProt P08922); details: kinase ROS, singlicate
Description: (§1) Table S4. Profiling of two compounds at two concentrations against 320 wild-type protein kinases; singlicate measurement; Residual activities (% of control).

[2] = molecular target: 320 wild-type protein kinases (Homo sapiens, UniProt Q00526); details: singlicate
320 wild-type protein kinases (Homo sapiens, UniProt Q00526), sequence (Q00526 whole entry): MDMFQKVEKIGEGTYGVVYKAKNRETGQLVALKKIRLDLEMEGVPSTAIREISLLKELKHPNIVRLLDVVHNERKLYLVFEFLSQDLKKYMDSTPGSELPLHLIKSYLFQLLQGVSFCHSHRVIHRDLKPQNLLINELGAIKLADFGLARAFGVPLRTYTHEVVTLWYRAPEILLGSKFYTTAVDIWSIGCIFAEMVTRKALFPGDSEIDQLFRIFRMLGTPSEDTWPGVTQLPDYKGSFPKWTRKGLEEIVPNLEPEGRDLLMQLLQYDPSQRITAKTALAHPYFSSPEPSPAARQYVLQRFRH
Description: as §1

[3] = molecular target: 320 wild-type protein kinases (Homo sapiens, UniProt P05771); details: singlicate
320 wild-type protein kinases (Homo sapiens, UniProt P05771), sequence (P05771 whole entry): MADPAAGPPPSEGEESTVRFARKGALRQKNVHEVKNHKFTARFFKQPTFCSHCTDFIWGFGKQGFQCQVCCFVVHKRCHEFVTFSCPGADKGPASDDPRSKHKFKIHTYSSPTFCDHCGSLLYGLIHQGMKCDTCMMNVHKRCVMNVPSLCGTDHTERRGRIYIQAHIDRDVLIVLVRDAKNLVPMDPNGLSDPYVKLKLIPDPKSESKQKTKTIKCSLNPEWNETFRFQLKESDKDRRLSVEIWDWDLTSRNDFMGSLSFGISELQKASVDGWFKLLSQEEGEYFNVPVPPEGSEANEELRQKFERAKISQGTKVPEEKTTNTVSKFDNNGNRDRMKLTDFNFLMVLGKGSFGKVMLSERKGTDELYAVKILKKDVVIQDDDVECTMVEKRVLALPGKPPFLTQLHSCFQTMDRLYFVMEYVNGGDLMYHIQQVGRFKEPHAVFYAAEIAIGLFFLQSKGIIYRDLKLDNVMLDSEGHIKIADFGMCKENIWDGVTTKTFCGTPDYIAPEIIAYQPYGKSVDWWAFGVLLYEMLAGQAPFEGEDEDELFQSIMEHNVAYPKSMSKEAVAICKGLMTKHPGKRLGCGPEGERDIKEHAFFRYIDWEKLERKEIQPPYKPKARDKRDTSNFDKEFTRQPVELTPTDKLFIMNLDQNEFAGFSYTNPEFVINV
Description: as §1

[4] = molecular target: 320 wild-type protein kinases (Homo sapiens, UniProt Q9BYP7); details: kinase WNK3, singlicate
Description: as §1

[5] = molecular target: 320 wild-type protein kinases (Homo sapiens, UniProt P04049, Y340D/Y341D); details: kinase RAF1 Y340D/Y341D (untagged), singlicate
Description: as §1

[6] = molecular target: 320 wild-type protein kinases (Homo sapiens, UniProt Q96SB4); details: kinase SRPK1, singlicate
320 wild-type protein kinases (Homo sapiens, UniProt Q96SB4), sequence (Q96SB4 whole entry): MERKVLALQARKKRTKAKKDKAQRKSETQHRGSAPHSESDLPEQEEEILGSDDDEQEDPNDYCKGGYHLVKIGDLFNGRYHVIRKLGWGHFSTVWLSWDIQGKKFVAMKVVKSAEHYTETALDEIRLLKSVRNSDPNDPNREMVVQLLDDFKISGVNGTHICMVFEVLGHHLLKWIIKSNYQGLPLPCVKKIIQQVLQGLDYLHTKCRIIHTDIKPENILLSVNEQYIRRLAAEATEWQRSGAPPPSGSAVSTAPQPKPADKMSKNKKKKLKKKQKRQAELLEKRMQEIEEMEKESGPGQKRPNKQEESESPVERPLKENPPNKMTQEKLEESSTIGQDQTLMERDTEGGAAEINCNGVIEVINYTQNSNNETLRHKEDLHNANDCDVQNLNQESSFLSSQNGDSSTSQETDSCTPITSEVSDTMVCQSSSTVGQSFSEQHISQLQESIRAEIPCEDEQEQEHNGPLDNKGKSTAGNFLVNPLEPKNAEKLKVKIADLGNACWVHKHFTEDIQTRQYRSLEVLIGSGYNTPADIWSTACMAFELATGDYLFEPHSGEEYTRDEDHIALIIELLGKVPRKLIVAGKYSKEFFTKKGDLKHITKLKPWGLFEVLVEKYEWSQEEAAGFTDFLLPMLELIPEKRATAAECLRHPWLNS
Description: as §1

[7] = molecular target: 320 wild-type protein kinases (Homo sapiens, UniProt Q96RR4); details: singlicate
320 wild-type protein kinases (Homo sapiens, UniProt Q96RR4), sequence (Q96RR4 whole entry): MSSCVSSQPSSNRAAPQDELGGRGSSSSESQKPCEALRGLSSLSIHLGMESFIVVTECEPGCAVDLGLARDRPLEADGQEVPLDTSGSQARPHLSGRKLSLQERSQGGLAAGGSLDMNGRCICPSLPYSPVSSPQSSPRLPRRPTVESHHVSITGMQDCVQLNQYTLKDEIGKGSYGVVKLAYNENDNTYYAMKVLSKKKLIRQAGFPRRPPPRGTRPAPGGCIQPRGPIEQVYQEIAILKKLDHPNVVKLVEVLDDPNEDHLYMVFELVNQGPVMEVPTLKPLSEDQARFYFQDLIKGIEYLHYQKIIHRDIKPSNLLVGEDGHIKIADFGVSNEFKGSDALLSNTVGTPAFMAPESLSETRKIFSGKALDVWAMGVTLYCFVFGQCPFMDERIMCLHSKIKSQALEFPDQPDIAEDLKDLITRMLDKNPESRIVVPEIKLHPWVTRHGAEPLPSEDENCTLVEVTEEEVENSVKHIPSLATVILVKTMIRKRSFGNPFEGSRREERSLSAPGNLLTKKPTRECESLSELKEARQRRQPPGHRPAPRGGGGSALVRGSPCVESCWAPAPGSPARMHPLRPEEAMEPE
Description: as §1

[8] = molecular target: 320 wild-type protein kinases (Homo sapiens, UniProt Q13177); details: singlicate
320 wild-type protein kinases (Homo sapiens, UniProt Q13177), sequence (Q13177 whole entry): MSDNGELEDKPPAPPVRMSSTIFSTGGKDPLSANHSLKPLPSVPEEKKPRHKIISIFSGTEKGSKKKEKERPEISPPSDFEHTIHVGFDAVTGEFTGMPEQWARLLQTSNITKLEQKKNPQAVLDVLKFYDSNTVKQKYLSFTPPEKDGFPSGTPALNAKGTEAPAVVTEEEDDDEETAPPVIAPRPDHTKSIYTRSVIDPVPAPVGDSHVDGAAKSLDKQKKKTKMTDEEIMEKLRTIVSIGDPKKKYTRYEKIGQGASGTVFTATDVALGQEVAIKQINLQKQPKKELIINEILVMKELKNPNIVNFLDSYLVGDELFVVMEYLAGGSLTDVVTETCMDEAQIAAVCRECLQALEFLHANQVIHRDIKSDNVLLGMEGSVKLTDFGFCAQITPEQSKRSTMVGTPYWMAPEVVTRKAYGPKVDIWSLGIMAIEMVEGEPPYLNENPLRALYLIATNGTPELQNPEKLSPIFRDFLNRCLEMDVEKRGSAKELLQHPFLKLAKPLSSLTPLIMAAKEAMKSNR
Description: as §1

[9] = molecular target: 320 wild-type protein kinases (Homo sapiens, UniProt Q9NQU5); details: singlicate
Description: as §1

[10] = molecular target: 320 wild-type protein kinases (Homo sapiens, UniProt Q9UEW8); details: kinase STK39, singlicate
Description: as §1

[11] = molecular target: T1, 320 wild-type protein kinases (Homo sapiens, UniProt P33981); details: kinase TTK, singlicate
T1 sequence (P33981 1-857): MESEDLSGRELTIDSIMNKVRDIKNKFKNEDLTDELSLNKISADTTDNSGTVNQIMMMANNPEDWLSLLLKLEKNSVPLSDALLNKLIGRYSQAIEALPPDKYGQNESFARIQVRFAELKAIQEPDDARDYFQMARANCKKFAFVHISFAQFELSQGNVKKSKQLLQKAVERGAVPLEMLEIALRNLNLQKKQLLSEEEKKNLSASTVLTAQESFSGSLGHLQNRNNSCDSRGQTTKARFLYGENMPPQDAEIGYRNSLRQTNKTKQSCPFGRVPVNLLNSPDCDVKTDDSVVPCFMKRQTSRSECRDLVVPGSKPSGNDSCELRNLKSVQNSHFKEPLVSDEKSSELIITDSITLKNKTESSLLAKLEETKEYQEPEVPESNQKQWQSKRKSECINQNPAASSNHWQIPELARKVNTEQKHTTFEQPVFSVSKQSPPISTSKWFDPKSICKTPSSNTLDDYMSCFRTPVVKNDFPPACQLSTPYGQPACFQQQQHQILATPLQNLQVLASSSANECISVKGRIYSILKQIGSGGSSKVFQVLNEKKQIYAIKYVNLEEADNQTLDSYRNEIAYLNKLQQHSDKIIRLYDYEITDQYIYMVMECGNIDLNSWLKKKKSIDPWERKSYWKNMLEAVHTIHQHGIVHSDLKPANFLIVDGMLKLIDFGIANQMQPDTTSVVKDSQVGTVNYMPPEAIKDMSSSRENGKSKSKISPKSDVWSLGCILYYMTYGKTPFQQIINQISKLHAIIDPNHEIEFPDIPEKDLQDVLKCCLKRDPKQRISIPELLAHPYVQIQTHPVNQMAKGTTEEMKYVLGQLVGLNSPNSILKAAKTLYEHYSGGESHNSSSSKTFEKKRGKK
Description: as §1

[12] = molecular target: T2, 320 wild-type protein kinases (Homo sapiens, UniProt P42681); details: kinase TXK, singlicate
T2 sequence (P42681 1-527): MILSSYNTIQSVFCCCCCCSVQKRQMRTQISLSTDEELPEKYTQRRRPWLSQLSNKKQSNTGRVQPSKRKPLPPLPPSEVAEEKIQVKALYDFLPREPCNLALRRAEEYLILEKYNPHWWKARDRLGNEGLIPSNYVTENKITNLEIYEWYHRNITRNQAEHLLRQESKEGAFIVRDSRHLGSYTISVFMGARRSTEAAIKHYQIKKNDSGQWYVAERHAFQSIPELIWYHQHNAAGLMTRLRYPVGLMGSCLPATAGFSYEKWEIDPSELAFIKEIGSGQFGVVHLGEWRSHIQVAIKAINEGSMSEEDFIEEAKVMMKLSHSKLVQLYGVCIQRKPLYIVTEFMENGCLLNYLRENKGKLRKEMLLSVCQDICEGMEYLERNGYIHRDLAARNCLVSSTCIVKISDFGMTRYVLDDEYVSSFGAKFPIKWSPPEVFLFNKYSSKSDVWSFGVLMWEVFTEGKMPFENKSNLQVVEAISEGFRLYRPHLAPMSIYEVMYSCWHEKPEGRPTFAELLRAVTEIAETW
Description: as §1

320 wild-type protein kinases (Homo sapiens, UniProt P08922), sequence (P08922 28-2347): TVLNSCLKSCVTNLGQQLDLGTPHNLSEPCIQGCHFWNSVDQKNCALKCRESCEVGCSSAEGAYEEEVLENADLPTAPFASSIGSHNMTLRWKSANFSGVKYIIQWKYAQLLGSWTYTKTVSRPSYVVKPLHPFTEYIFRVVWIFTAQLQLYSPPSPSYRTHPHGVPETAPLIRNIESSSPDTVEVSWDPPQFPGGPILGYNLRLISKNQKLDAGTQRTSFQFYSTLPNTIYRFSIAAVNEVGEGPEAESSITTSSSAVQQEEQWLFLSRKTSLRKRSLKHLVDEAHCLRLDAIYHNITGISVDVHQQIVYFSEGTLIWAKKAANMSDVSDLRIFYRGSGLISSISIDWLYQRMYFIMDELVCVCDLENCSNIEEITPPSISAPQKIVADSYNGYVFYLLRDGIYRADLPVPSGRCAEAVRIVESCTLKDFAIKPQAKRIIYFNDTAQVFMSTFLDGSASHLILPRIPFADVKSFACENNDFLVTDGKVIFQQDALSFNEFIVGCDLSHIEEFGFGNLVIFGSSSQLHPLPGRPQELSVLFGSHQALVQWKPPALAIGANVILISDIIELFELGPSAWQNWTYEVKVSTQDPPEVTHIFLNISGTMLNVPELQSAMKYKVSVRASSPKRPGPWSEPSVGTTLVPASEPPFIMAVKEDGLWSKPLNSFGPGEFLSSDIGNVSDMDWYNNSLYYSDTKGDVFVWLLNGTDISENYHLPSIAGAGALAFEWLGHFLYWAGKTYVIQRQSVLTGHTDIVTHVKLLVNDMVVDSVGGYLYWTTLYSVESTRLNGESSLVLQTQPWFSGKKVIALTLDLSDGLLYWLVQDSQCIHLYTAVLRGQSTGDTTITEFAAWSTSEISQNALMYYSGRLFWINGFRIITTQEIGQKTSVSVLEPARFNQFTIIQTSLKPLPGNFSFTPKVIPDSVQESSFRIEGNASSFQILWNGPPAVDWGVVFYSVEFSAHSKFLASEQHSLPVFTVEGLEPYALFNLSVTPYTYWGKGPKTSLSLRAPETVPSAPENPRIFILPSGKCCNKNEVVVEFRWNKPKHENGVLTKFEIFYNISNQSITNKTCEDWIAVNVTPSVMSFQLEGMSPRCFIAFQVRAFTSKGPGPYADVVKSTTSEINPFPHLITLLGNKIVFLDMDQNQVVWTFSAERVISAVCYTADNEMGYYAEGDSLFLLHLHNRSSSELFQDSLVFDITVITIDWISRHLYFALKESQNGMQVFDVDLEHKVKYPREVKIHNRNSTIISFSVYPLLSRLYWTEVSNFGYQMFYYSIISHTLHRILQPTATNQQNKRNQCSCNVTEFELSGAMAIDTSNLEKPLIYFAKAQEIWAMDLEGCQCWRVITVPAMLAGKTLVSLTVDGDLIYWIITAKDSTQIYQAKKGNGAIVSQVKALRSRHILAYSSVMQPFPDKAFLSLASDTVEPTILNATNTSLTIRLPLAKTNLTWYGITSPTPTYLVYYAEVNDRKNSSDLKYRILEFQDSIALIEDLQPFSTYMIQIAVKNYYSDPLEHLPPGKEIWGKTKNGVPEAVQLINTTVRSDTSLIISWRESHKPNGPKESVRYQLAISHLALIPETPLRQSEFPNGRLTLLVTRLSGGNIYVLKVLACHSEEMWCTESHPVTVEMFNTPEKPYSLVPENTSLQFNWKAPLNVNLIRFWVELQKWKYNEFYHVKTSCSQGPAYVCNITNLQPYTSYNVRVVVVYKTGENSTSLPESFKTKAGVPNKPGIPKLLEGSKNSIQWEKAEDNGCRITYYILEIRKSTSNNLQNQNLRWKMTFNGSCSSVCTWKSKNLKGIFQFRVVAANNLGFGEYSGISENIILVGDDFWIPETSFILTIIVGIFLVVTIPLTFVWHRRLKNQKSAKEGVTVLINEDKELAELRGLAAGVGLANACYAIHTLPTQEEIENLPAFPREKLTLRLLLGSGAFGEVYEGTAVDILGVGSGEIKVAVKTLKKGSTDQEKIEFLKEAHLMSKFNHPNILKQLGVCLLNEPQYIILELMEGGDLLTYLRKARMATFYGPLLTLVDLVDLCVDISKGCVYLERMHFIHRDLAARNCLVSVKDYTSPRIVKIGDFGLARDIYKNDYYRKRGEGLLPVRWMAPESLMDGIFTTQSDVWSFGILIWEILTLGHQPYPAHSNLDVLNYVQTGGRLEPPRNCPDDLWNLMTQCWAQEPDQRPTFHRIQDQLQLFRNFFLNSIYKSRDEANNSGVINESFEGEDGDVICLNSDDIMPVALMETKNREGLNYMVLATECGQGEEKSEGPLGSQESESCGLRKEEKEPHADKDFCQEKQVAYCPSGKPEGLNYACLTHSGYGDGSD

C#Cc1cc(Nc2ncnc3cc(I)ccc23)ccc1Cl [Compound 41]
Residual activity, ROS ([1]; assay conc. 1.0E-06 M): 88 % of control | Residual activity, ROS ([1]; assay conc. 1.0E-07 M): 95 % of control | Residual activity ([2]; CDK3/CycC, 1.0E-06 M): 87 % of control | Residual activity ([2]; CDK3/CycC, 1.0E-07 M): 90 % of control | Residual activity ([2]; CDK3/CycE1, 1.0E-06 M): 96 % of control | Residual activity ([2]; CDK3/CycE1, 1.0E-07 M): 115 % of control | Residual activity ([3]; PKC-beta1, 1.0E-06 M): 96 % of control | Residual activity ([3]; PKC-beta1, 1.0E-07 M): 110 % of control | Residual activity, WNK3 ([4]; assay conc. 1.0E-06 M): 115 % of control | Residual activity, WNK3 ([4]; assay conc. 1.0E-07 M): 118 % of control | Residual activity, RAF1 Y340D/Y341D (untagged) ([5]; assay conc. 1.0E-06 M): 99 % of control | Residual activity, RAF1 Y340D/Y341D (untagged) ([5]; assay conc. 1.0E-07 M): 95 % of control | Residual activity, SRPK1 ([6]; assay conc. 1.0E-06 M): 89 % of control | Residual activity, SRPK1 ([6]; assay conc. 1.0E-07 M): 96 % of control | Residual activity ([7]; CAMKK2, 1.0E-06 M): 71 % of control | Residual activity ([7]; CAMKK2, 1.0E-07 M): 96 % of control | Residual activity ([8]; PAK2, 1.0E-06 M): 102 % of control | Residual activity ([8]; PAK2, 1.0E-07 M): 108 % of control | Residual activity ([9]; PAK6, 1.0E-06 M): 88 % of control | Residual activity ([9]; PAK6, 1.0E-07 M): 97 % of control | Residual activity, STK39 ([10]; assay conc. 1.0E-06 M): 98 % of control | Residual activity, STK39 ([10]; assay conc. 1.0E-07 M): 106 % of control | Residual activity, TTK ([11]; assay conc. 1.0E-06 M): 81 % of control | Residual activity, TTK ([11]; assay conc. 1.0E-07 M): 100 % of control | Residual activity, TXK ([12]; assay conc. 1.0E-06 M): 79 % of control | Residual activity, TXK ([12]; assay conc. 1.0E-07 M): 90 % of control

C#Cc1cc(Nc2ncnc3cc(OC)c(OC)cc23)ccc1Cl [Compound 45]
Residual activity, ROS ([1]; assay conc. 1.0E-06 M): 89 % of control | Residual activity, ROS ([1]; assay conc. 1.0E-07 M): 96 % of control | Residual activity ([2]; CDK3/CycC, 1.0E-06 M): 86 % of control | Residual activity ([2]; CDK3/CycC, 1.0E-07 M): 92 % of control | Residual activity ([2]; CDK3/CycE1, 1.0E-06 M): 102 % of control | Residual activity ([2]; CDK3/CycE1, 1.0E-07 M): 117 % of control | Residual activity ([3]; PKC-beta1, 1.0E-06 M): 88 % of control | Residual activity ([3]; PKC-beta1, 1.0E-07 M): 95 % of control | Residual activity, WNK3 ([4]; assay conc. 1.0E-06 M): 105 % of control | Residual activity, WNK3 ([4]; assay conc. 1.0E-07 M): 124 % of control | Residual activity, RAF1 Y340D/Y341D (untagged) ([5]; assay conc. 1.0E-06 M): 88 % of control | Residual activity, RAF1 Y340D/Y341D (untagged) ([5]; assay conc. 1.0E-07 M): 83 % of control | Residual activity, SRPK1 ([6]; assay conc. 1.0E-06 M): 97 % of control | Residual activity, SRPK1 ([6]; assay conc. 1.0E-07 M): 100 % of control | Residual activity ([7]; CAMKK2, 1.0E-06 M): 74 % of control | Residual activity ([7]; CAMKK2, 1.0E-07 M): 79 % of control | Residual activity ([8]; PAK2, 1.0E-06 M): 104 % of control | Residual activity ([8]; PAK2, 1.0E-07 M): 101 % of control | Residual activity ([9]; PAK6, 1.0E-06 M): 87 % of control | Residual activity ([9]; PAK6, 1.0E-07 M): 98 % of control | Residual activity, STK39 ([10]; assay conc. 1.0E-06 M): 91 % of control | Residual activity, STK39 ([10]; assay conc. 1.0E-07 M): 102 % of control | Residual activity, TTK ([11]; assay conc. 1.0E-06 M): 83 % of control | Residual activity, TTK ([11]; assay conc. 1.0E-07 M): 97 % of control | Residual activity, TXK ([12]; assay conc. 1.0E-06 M): 52 % of control | Residual activity, TXK ([12]; assay conc. 1.0E-07 M): 91 % of control
